Data taken from patent US20230304010A1, “COMPOSITIONS AND METHODS FOR TREATING VIRAL INFECTIONS” (priority 2020, published 2023).
Several values for one entry are separate records, joined by “and”; a condition that tells them apart may be missing. Identical values can stand only once. Like-named read-outs stand apart in the source and are kept apart here.

How the values were obtained:
[1] = tested on: Vero E6 cells
[2] = tested on: SARS-CoV-2; experiment: microbe, parasite or virus in culture
[3] = tested on: SARS-CoV-2
[4] = tested on: SARS-CoV-2; experiment: siRNA/ADGN-100 complexes on SARS-CoV2 virus infection, Vero E6 cells; type: cell-based
[5] = tested on: Vero-6 cells; experiment: Cellular toxicity of siRNA/ADGN-100 complexes on Vero-6 cells, CellTiter-Glo; settings: uninfected Vero-6 cells
[6] = tested on: SARS-CoV-2 Nucleocapsid gene; type: cell-based
[7] = tested on: SARS-CoV-2 nucleocapside; type: cell-based; settings: read-out: IC50 of silencing response
[8] = Lung and liver toxicity studies after intratracheal instillation
Experimental: Single dose of peptides or peptide/siRNA complexes were administrated via intratracheal instillation (200 μg) (Table 20). Saline solution was used as negative control. Samples were collected 12, 24, 48 and 72 hr post administration.
The body weight of the mice were recorded before intratracheal instillation (day 0), at day1, day 2 and before being sacrificed (day 3). The lung, liver, heart, kidney and brain were collected at day 3 and organ index were determined.
Bronchoalveolar lavage (BAL) were performed 2 days after instillation. The percentage of the cells, the total protein and level of LDH in the BAL were analyzed.
AST and ALT levels in the plasma were assayed 2 days after instillation.

[9] = In vivo lung biodistribution after intratracheal instillation (fluorescence imaging, confocal microscopy); settings: administrated intratracheally
Experimental: To monitor DIVC-6 siRNA biodistribution, the siRNA was labelled with Cy-5.5.
In vivo lung biodistribution study was performed in healthy 4 weeks old male C57BL/6J mice. Single dose of peptides or peptide/siRNA complexes were administrated via intratracheal instillation (200 μg) (Table 20). The fluorescence was evaluated by non-invasive in vivo whole-body fluorescence imaging at T0, 1 h, 2 h, 6 h, 24 h, 48 h and 72 hr post injection. Fluorescence images were acquired with the IVIS kinetic system (PerkinElmer) (ex: 640±17 nm; em: 680±10 nm) and semi-quantitative data were obtained from the fluorescence images by using the Living image software (Caliper 2D).
Further analysis of the lung distribution of the different compounds was performed by confocal microscopy. Lungs were collected at 4 hr, 24 hr and 72 hr post administration, fixed in formaldehyde 4% in Glucose 5%. Tissues were stained with Mito tracker red and nucleus with Hoesch.

[10] = Nanoparticle formation of peptides with ADGN-106: mean size and polydispersity (Zetasizer); type: physicochemical; settings: 25° C.; for Mean Size (nm): peptide/ADGN-106 complexes; for PI: polydispersity index of peptide/ADGN-106 complexes
Excerpt: We then tested the ability of the different peptides to form nanoparticle organization in the presence of ADGN-106 or ADGN-100 peptide. […] Peptides were complexed with 5 or 10 molar excess of ADGN-106.

[11] = tested on: SARS-CoV-2; remark: listed apart in the source
[12] = target: ACE2:SARS-CoV-2 Spike interaction (UniProt P0DTC2+Q9BYF1); experiment: biochemical; type: binding; settings: IC50, SARS-COV2
ACE2:SARS-CoV-2 Spike interaction, sequence (Q9BYF1 18-740, one chain of several): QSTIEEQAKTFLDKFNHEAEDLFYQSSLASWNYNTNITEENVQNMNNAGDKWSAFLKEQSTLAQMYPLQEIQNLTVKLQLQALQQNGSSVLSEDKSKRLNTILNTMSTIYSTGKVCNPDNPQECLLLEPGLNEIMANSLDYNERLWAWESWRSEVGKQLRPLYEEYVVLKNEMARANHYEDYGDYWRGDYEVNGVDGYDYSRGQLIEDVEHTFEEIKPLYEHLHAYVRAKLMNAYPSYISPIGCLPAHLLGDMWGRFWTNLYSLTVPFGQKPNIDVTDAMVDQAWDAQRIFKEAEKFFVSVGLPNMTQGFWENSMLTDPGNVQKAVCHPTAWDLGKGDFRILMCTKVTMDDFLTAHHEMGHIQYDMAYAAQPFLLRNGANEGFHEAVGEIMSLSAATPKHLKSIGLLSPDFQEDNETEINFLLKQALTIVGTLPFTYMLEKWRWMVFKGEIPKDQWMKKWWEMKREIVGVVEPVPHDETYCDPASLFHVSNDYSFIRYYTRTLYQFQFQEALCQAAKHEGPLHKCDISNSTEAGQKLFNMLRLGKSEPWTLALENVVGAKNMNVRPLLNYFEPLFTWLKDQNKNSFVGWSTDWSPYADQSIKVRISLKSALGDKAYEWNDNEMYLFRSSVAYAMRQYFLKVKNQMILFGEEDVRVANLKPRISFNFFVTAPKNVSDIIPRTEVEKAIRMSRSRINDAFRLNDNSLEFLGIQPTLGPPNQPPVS

[13] = target: SARS-CoV-2 Spike: ACE2 interaction (UniProt P0DTC2+Q9BYF1); experiment: biochemical; type: binding
SARS-CoV-2 Spike: ACE2 interaction, sequence (Q9BYF1 18-740, one chain of several): as above

[14] = in vitro; settings: uninfected Vero E6 cells
[15] = read-out: SARS-COV2 IC50, original strain, second Table 19, siRNA complexed at molar ratio 1/20
[16] = treatments added to Vero-E6 immediately prior to virus infection, Table 16

CCN(CCO)CCCC(C)Nc1ccnc2cc(Cl)ccc12 (stereo not shown) [Hydroxy chloroquine]
TD50 ([1]; African green monkey): 190 ± 28 µM | IC50 ([2]; Severe acute respiratory syndrome coronavirus 2, Vero C1008, read-out: IC50 against SARS-CoV2 virus infection): 4400 ± 215 nM | IC50 ([2]; Severe acute respiratory syndrome coronavirus 2, Vero C1008, read-out: P-IC50 (nM)): 4700 nM | IC50 ([2]; Severe acute respiratory syndrome coronavirus 2, Vero, read-out: D-IC50 (nM)): 4400 ± 215 nM

GGCCAAACTGTCACTAAGAAA (chemistry not given here) [DIVC-6]
IC50 [3, 15]: 68 nM | fold stronger anti-SARS-CoV-2 activity than hydroxychloroquine sulfate [4]: 64 fold | IC50 ([4]; siRNA complexed with ADGN-100 at molar ratio 1/20, added to Vero-E6 immediately prior to virus infection, read-out: IC50): 68 ± 12 nM | TD50 (μM) [5]: 652 + 24 μM | IC50 [6]: 8.7 ± 2 nM | IC50 [7]: 11 nM and 8.7 nM

CC(=O)N[C@@H](CCC(=O)O)C(=O)N[C@@H](CCC(N)=O)C(=O)N[C@@H](C)C(=O)N[C@@H](CCCCN)C(=O)N[C@H](C(=O)N[C@@H](Cc1ccccc1)C(=O)N[C@@H](CC(C)C)C(=O)N[C@@H](CC(=O)O)C(=O)N[C@@H](CCCCN)C(=O)N[C@@H](Cc1ccccc1)C(=O)N[C@@H](CC(N)=O)C(=O)N[C@@H](Cc1c[nH]cn1)C(=O)N[C@@H](CCC(=O)O)C(=O)N[C@@H](C)C(=O)N[C@@H](CCC(=O)O)C(=O)N[C@@H](CC(=O)O)C(=O)N[C@@H](CC(C)C)C(=O)N[C@@H](Cc1ccccc1)C(=O)NCCCCCC(=O)N[C@@H](CC(C)C)C(=O)N[C@@H](Cc1c[nH]c2ccccc12)C(=O)N[C@@H](CCCNC(=N)N)C(=O)N[C@@H](C)C(=O)N[C@@H](CC(C)C)C(=O)N[C@@H](Cc1c[nH]c2ccccc12)C(=O)N[C@@H](CCCNC(=N)N)C(=O)N[C@@H](CC(C)C)C(=O)N[C@@H](Cc1c[nH]c2ccccc12)C(=O)N[C@@H](CCCNC(=N)N)C(=O)N[C@@H](CO)C(=O)N[C@@H](CC(C)C)C(=O)N[C@@H](Cc1c[nH]c2ccccc12)C(=O)N[C@@H](CCCNC(=N)N)C(=O)N[C@@H](CC(C)C)C(=O)N[C@@H](CC(C)C)C(=O)N[C@@H](Cc1c[nH]c2ccccc12)C(=O)N[C@@H](CCCCN)C(N)=O)[C@@H](C)O [Seq33]
lung and liver toxicity associated to treatment ([8]; mouse, in vivo): no lung and liver toxicity | tolerability upon intratracheal administration ([8]; mouse, in vivo): well tolerated | lung targeting and tissue penetration [9]: significantly penetrate lung tissue | IC50 [3, 15]: 21.7 ± 8 nM | IC50 [3, 16]: 22.9 ± 8 nM | Mean Size (nm) [10]: 45.9 ± 10 nm | PI [10]: 0.24 | Residual Infection (%) [11]: 15% | fold stronger anti-SARS-CoV-2 activity than hydroxychloroquine sulfate [11]: 250 fold | increase of potency by pre-incubation with SARS CoV-2 prior infection [11]: 2 factor | inhibition of viral infection [11]: exhibit inhibition of viral infection | IC50 [12]: 18.4 ± 11 nM | folds more potent than SBP-1-ADGN-106/ADGN-106 complex [13]: 4 folds | folds more potent than SBP-1 coupled to ADGN-106 [13]: 8 folds | folds more potent than SBP-1 peptide/ADGN-106 complex [13]: 35 folds | folds more potent than free SBP-1 [13]: 14 folds | IC50 ([13]; SARS-CoV-2 Spike:ACE2 IC50): 178 ± 14 nM | CC50 [14]: 510000 ± 31000 nM | viability at 0.5 µM [14]: 94%

Ac-N*GVEGFNK*Ava-LWRALWRLWRSLWRLLWK-NH2 [Seq17]
percentage of the cells in bronchoalveolar lavage ([8]; 2 days after instillation, versus saline): slight increases of macrophages | lung and liver toxicity associated to treatment ([8]; mouse, in vivo): no lung and liver toxicity | IC50 [3, 15]: 31.5 ± 12 nM | IC50 [3, 16]: 27.5 ± 11 nM | Mean Size (nm) [10]: 57 ± 4 nm | PI [10]: 0.17 | Residual Infection (%) [11]: 20% | inhibition of viral infection [11]: exhibit inhibition of viral infection | reduction of anti-viral activity by pre-incubation [11]: 2 fold | IC50 ([11]; read-out: D-IC50): 21.5 ± 12 nM | IC50 ([11]; read-out: IC50, SARS-COV2): 31.5 ± 12 nM | IC50 ([11]; read-out: P-IC50): 57.2 ± 12 nM | TD50 ([1]; uninfected Vero E6 cells): 340 ± 28 µM | Cell Viability (%) ([1]; uninfected Vero E6 cells, 0.5 µM): 85%
